Assay results: US20250255867A1 (Kadmon Corporation, LLC, priority 2022, published 2025)

Columns and labels:
patients with cGVHD = assay: Example 1: pulmonary function (percent predicted FEV1, FVC, DLco, TLC, RV) change from baseline; format: in vivo, human
Procedure: Change From Baseline in Percent Predicted Forced Expiratory Volume in 1 Second (FEV1) at Each Specified Time Points. FEV1 was the volume of air exhaled from the lungs in the first second of a forced expiration as measured by spirometer. Baseline value was defined as valid and last non-missing value obtained within 28 days prior to participant receiving first study medication. EOT visit was performed within 3 days after the participant's last dose of study drug. […] Analysis was performed on mITT population. Here, ‘number analyzed’=participants with available data for each specified category. Here, ‘0’ in the number analyzed field signifies that none of the participants were available for the analysis at the specified time points.
Change From Baseline in Percent Predicted Forced Vital Capacity (FVC) at Each Specified Time Points. FVC was the total amount of air (in liters) exhaled from the lungs during the lung function test measured by spirometer which assessed the change in lung function related to the disease status. Baseline value was defined as valid and last non-missing value obtained within 28 days prior to participant receiving first study medication. EOT visit was performed within 3 days after the participant's last dose of study drug. […] Analysis was performed on mITT population. Here, ‘number analyzed’=participants with available data for each specified category. Here, ‘0’ in the number analyzed field signifies that none of the participants were available for the analysis at the specified time points.
Change From Baseline in Percent Predicted Hemoglobin (HGB) Corrected Diffusing Capacity of Lung for Carbon Monoxide (DLco) at Each Specified Time Points. DLco is a measurement of the ability of the lungs to transfer gases from the air to the blood. Change from baseline in diffusing capacity of the lung for carbon monoxide (percent predicted hemoglobin level corrected) was reported for this measure. Baseline value was defined as valid and last non-missing value obtained within 28 days prior to participant receiving first study medication. EOT visit was performed within 3 days after the participant's last dose of study drug. […] Analysis was performed on mITT population. Here, ‘number analyzed’=participants with available data for each specified category. Here, ‘0’ in the number analyzed field signifies that none of the participants were available for the analysis at the specified time points.
Change From Baseline in Percent Predicted Total Lung Capacity (TLC) at Each Specified Time Points. TLC is the volume of air in the lungs upon the maximum effort of inspiration. Baseline value was defined as valid and last non-missing value obtained within 28 days prior to participant receiving first study medication. EOT visit was performed within 3 days after the participant's last dose of study drug. […] Analysis was performed on mITT population. Here, ‘number analyzed’=participants with available data for each specified category.

subjects with cGVHD = assay: Example 2: 7-day LSS summary score; format: in vivo, human; details: for Clinically significant improvement from baseline (LSS), Overall: decrease ≥7 points in LSS score, mITT population
Procedure: All responses were assessed by the study site investigators.

With CC(C)NC(=O)COc1cccc(-c2nc(Nc3ccc4[nH]ncc4c3)c3ccccc3n2)c1 [Belumosudil, 2-{3-[4-(1H-indazol-5-ylamino)-2-quinazolinyl]phenoxy}-N-(propan-2-yl) acetamide] the “Change From Baseline in Percent Predicted Residual Volume (RV), Mean (Standard Deviation)” value (patients with cGVHD; Cohort 2: 200 mg BID, Cycle 16, Day 1, n=2) was −36.5 (13.4) percent predicted RV, the “Change From Baseline in Percent Predicted Residual Volume (RV), Mean (Standard Deviation)” value (patients with cGVHD; Cohort 2: 200 mg BID, Cycle 17, Day 1, n=3) was −47.3 (25.1) percent predicted RV and the “Change From Baseline in Percent Predicted Residual Volume (RV), Mean (Standard Deviation)” value (patients with cGVHD; Cohort 2: 200 mg BID, Cycle 18, Day 1, n=2) was −42.0 (0.0) percent predicted RV. The “Change From Baseline in Percent Predicted Residual Volume (RV), Mean (Standard Deviation)” value (patients with cGVHD; Cohort 2: 200 mg BID, Cycle 19, Day 1, n=3) was −19.7 (18.0) percent predicted RV, the “Change From Baseline in Percent Predicted Residual Volume (RV), Mean (Standard Deviation)” value (patients with cGVHD; Cohort 2: 200 mg BID, Cycle 20, Day 1, n=2) was −7.5 (37.5) percent predicted RV and the “Change From Baseline in Percent Predicted Residual Volume (RV), Mean (Standard Deviation)” value (patients with cGVHD; Cohort 2: 200 mg BID, Cycle 21, Day 1, n=1) was −44.0 (—) percent predicted RV. The “Change From Baseline in Percent Predicted Residual Volume (RV), Mean (Standard Deviation)” value (patients with cGVHD; Cohort 2: 200 mg BID, Cycle 22, Day 1, n=2) was −33.0 (19.8) percent predicted RV, the “Change From Baseline in Percent Predicted Residual Volume (RV), Mean (Standard Deviation)” value (patients with cGVHD; Cohort 2: 200 mg BID, Cycle 23, Day 1, n=1) was −72.0 (—) percent predicted RV and the “Change From Baseline in Percent Predicted Residual Volume (RV), Mean (Standard Deviation)” value (patients with cGVHD; Cohort 2: 200 mg BID, Cycle 24, Day 1, n=1) was −17.0 (—) percent predicted RV. For the same compound, the “Change From Baseline in Percent Predicted Residual Volume (RV), Mean (Standard Deviation)” value (patients with cGVHD; Cohort 2: 200 mg BID, Cycle 25, Day 1, n=2) was −34.0 (31.1) percent predicted RV, the “Change From Baseline in Percent Predicted Residual Volume (RV), Mean (Standard Deviation)” value (patients with cGVHD; Cohort 2: 200 mg BID, Cycle 27, Day 1, n=2) was −39.5 (20.5) percent predicted RV and the “Change From Baseline in Percent Predicted Residual Volume (RV), Mean (Standard Deviation)” value (patients with cGVHD; Cohort 2: 200 mg BID, Cycle 29, Day 1, n=1) was −13.0 (—) percent predicted RV. For the same compound, the “Change From Baseline in Percent Predicted Residual Volume (RV), Mean (Standard Deviation)” value (patients with cGVHD; Cohort 2: 200 mg BID, Cycle 37, Day 1, n=1) was −70.0 (—) percent predicted RV, the “Change From Baseline in Percent Predicted Residual Volume (RV), Mean (Standard Deviation)” value (patients with cGVHD; Cohort 2: 200 mg BID, Cycle 39, Day 1, n=2) was −43.0 (42.4) percent predicted RV and the “Change From Baseline in Percent Predicted Residual Volume (RV), Mean (Standard Deviation)” value (patients with cGVHD; Cohort 2: 200 mg BID, Cycle 43, Day 1, n=1) was −26.0 (—) percent predicted RV. For the same compound, the “Change From Baseline in Percent Predicted Residual Volume (RV), Mean (Standard Deviation)” value (patients with cGVHD; Cohort 2: 200 mg BID, EOT, n=8) was 10.6 (34.9) percent predicted RV, the “Change From Baseline in Percent Predicted Residual Volume (RV), Mean (Standard Deviation)” value (patients with cGVHD; Cohort 3: 400 mg QD, Cycle 2, Day 1, n=4) was −18.0 (30.1) percent predicted RV and the “Change From Baseline in Percent Predicted Residual Volume (RV), Mean (Standard Deviation)” value (patients with cGVHD; Cohort 3: 400 mg QD, Cycle 3, Day 1, n=12) was 9.0 (34.4) percent predicted RV. For the same compound, the “Change From Baseline in Percent Predicted Residual Volume (RV), Mean (Standard Deviation)” value (patients with cGVHD; Cohort 3: 400 mg QD, Cycle 4, Day 1, n=6) was 17.8 (29.0) percent predicted RV, the “Change From Baseline in Percent Predicted Residual Volume (RV), Mean (Standard Deviation)” value (patients with cGVHD; Cohort 3: 400 mg QD, Cycle 5, Day 1, n=10) was −3.7 (29.8) percent predicted RV and the “Change From Baseline in Percent Predicted Residual Volume (RV), Mean (Standard Deviation)” value (patients with cGVHD; Cohort 3: 400 mg QD, Cycle 6, Day 1, n=7) was −10.9 (37.5) percent predicted RV. For the same compound, the “Change From Baseline in Percent Predicted Residual Volume (RV), Mean (Standard Deviation)” value (patients with cGVHD; Cohort 3: 400 mg QD, Cycle 7, Day 1, n=12) was −7.5 (33.0) percent predicted RV, the “Change From Baseline in Percent Predicted Residual Volume (RV), Mean (Standard Deviation)” value (patients with cGVHD; Cohort 3: 400 mg QD, Cycle 8, Day 1, n=6) was 2.5 (39.7) percent predicted RV and the “Change From Baseline in Percent Predicted Residual Volume (RV), Mean (Standard Deviation)” value (patients with cGVHD; Cohort 3: 400 mg QD, Cycle 9, Day 1, n=10) was 0.1 (35.6) percent predicted RV. The “Change From Baseline in Percent Predicted Residual Volume (RV), Mean (Standard Deviation)” value (patients with cGVHD; Cohort 3: 400 mg QD, Cycle 10, Day 1, n=5) was 1.4 (38.2) percent predicted RV, the “Change From Baseline in Percent Predicted Residual Volume (RV), Mean (Standard Deviation)” value (patients with cGVHD; Cohort 3: 400 mg QD, Cycle 11, Day 1, n=8) was 5.4 (38.0) percent predicted RV and the “Change From Baseline in Percent Predicted Residual Volume (RV), Mean (Standard Deviation)” value (patients with cGVHD; Cohort 3: 400 mg QD, Cycle 12, Day 1, n=6) was −22.2 (49.9) percent predicted RV. The “Change From Baseline in Percent Predicted Residual Volume (RV), Mean (Standard Deviation)” value (patients with cGVHD; Cohort 3: 400 mg QD, Cycle 13, Day 1, n=8) was 0.3 (32.6) percent predicted RV, the “Change From Baseline in Percent Predicted Residual Volume (RV), Mean (Standard Deviation)” value (patients with cGVHD; Cohort 3: 400 mg QD, Cycle 14, Day 1, n=6) was −6.5 (36.3) percent predicted RV and the “Change From Baseline in Percent Predicted Residual Volume (RV), Mean (Standard Deviation)” value (patients with cGVHD; Cohort 3: 400 mg QD, Cycle 15, Day 1, n=7) was −16.7 (22.3) percent predicted RV. The “Change From Baseline in Percent Predicted Residual Volume (RV), Mean (Standard Deviation)” value (patients with cGVHD; Cohort 3: 400 mg QD, Cycle 16, Day 1, n=4) was −27.5 (31.9) percent predicted RV, the “Change From Baseline in Percent Predicted Residual Volume (RV), Mean (Standard Deviation)” value (patients with cGVHD; Cohort 3: 400 mg QD, Cycle 17, Day 1, n=7) was −39.1 (26.2) percent predicted RV and the “Change From Baseline in Percent Predicted Residual Volume (RV), Mean (Standard Deviation)” value (patients with cGVHD; Cohort 3: 400 mg QD, Cycle 18, Day 1, n=3) was −7.3 (33.7) percent predicted RV. The “Change From Baseline in Percent Predicted Residual Volume (RV), Mean (Standard Deviation)” value (patients with cGVHD; Cohort 3: 400 mg QD, Cycle 19, Day 1, n=4) was −23.5 (18.7) percent predicted RV, the “Change From Baseline in Percent Predicted Residual Volume (RV), Mean (Standard Deviation)” value (patients with cGVHD; Cohort 3: 400 mg QD, Cycle 20, Day 1, n=3) was −22.0 (44.3) percent predicted RV and the “Change From Baseline in Percent Predicted Residual Volume (RV), Mean (Standard Deviation)” value (patients with cGVHD; Cohort 3: 400 mg QD, Cycle 21, Day 1, n=5) was −30.2 (51.2) percent predicted RV. For the same compound, the “Change From Baseline in Percent Predicted Residual Volume (RV), Mean (Standard Deviation)” value (patients with cGVHD; Cohort 3: 400 mg QD, Cycle 22, Day 1, n=2) was −41.0 (46.7) percent predicted RV, the “Change From Baseline in Percent Predicted Residual Volume (RV), Mean (Standard Deviation)” value (patients with cGVHD; Cohort 3: 400 mg QD, Cycle 23, Day 1, n=4) was 1.5 (44.8) percent predicted RV and the “Change From Baseline in Percent Predicted Residual Volume (RV), Mean (Standard Deviation)” value (patients with cGVHD; Cohort 3: 400 mg QD, Cycle 24, Day 1, n=1) was −78.0 (—) percent predicted RV. For the same compound, the “Change From Baseline in Percent Predicted Residual Volume (RV), Mean (Standard Deviation)” value (patients with cGVHD; Cohort 3: 400 mg QD, Cycle 25, Day 1, n=3) was −23.3 (56.0) percent predicted RV, the “Change From Baseline in Percent Predicted Residual Volume (RV), Mean (Standard Deviation)” value (patients with cGVHD; Cohort 3: 400 mg QD, Cycle 27, Day 1, n=2) was −41.0 (28.3) percent predicted RV and the “Change From Baseline in Percent Predicted Residual Volume (RV), Mean (Standard Deviation)” value (patients with cGVHD; Cohort 3: 400 mg QD, Cycle 29, Day 1, n=2) was 17.5 (40.3) percent predicted RV. The “Change From Baseline in Percent Predicted Residual Volume (RV), Mean (Standard Deviation)” value (patients with cGVHD; Cohort 3: 400 mg QD, Cycle 39, Day 1, n=1) was 81.0 (—) percent predicted RV, the “Change From Baseline in Percent Predicted Residual Volume (RV), Mean (Standard Deviation)” value (patients with cGVHD; Cohort 3: 400 mg QD, Cycle 43, Day 1, n=1) was 75.0 (—) percent predicted RV and the “Change From Baseline in Percent Predicted Residual Volume (RV), Mean (Standard Deviation)” value (patients with cGVHD; Cohort 3: 400 mg QD, Cycle 47, Day 1, n=1) was 87.0 (—) percent predicted RV. The “Change From Baseline in Percent Predicted Residual Volume (RV), Mean (Standard Deviation)” value (patients with cGVHD; Cohort 3: 400 mg QD, Cycle 49, Day 1, n=1) was −5.0 (—) percent predicted RV, the “Change From Baseline in Percent Predicted Residual Volume (RV), Mean (Standard Deviation)” value (patients with cGVHD; Cohort 3: 400 mg QD, EOT, n=8) was −18.5 (32.6) percent predicted RV and the “Clinically meaningful improvement in 7-day LSS summary score” value (“Clinically meaningful improvement” below) (subjects with cGVHD; 200 mg daily, nonresponders) was 29%. For the same compound, the “Clinically meaningful improvement” value (subjects with cGVHD; 200 mg daily, responders) was 69%, the “Clinically meaningful improvement” value (subjects with cGVHD; 200 mg twice daily, nonresponders) was 33% and the “Clinically meaningful improvement” value (subjects with cGVHD; 200 mg twice daily, responders) was 71%. The “Clinically significant improvement from baseline (LSS), Overall” value (subjects with cGVHD; 200 mg daily (n = 66)) was 39 (59) n (%) and the “Clinically significant improvement from baseline (LSS), Overall” value (subjects with cGVHD; 200 mg twice daily (n = 66)) was 41 (62) n (%).
